Read-outs that look alike come from different tables or passages of the source.
Assays:
[1] = set-up: method as in PMID 12236477; conditions: metabolites of omeprazole; cited from earlier work
[2] = Pharmacokinetics of levosulpiride 50 mg alone and co-administered with omeprazole 40 mg in healthy human volunteers (Phase-1); format: in vivo; conditions: for AUC(0-inf) / AUC(0-t) / Cmax / Tmax / half-life: human, plasma, oral; for CL/F: healthy human volunteers (n = 20), mean ± SD
Procedure: (§1) The developed method was applied for evaluation of pharmacokinetics drug-drug interaction between LSP and OMP in healthy human volunteers (n = 20). Both the drugs were administered to the healthy volunteers, their blood samples were collected at specified time points and analyzed for the drug content, using the developed method. Written consent form was signed by all the volunteers and purpose of the study was explained to them. They were physically examined and medical history was recorded. Age of the volunteers was 20–28 years, with mean body mass index (BMI) of […]. Complete blood count, creatinine clearance, and liver function tests of all the healthy human volunteers were performed. All the volunteers were non-smokers and had no history of addiction. They were instructed not to take any medicines for two weeks before the study.
(§2) The study was conducted according to the “World Medical Association Declaration of Helsinki-Ethical principles of medical research involving human subjects” and its amendments. This study was approved by the ethical committee, Department of Pharmacy, University of Swabi, KP, Pakistan (Application number F.NO.UOS/2022/Pharm.02). It was an open-label, randomized, crossover, pharmacokinetic interaction study. The volunteers were divided into two groups of same size (n = 10) and the trial was conducted in two phases and two sequences, as follows;
Phase-1: First phase of the study consisted of two cycles with a wash out period of 14 days. During first phase of the study;
• Group-I: OMP 40 mg was administered twice a day for 6 days, and on the 7th day a single dose of LSP 50 mg was administered • Group-II: LSP 50 mg was administered alone as a single dose
Blood samples (3 mL) were collected at 0, 0.25, 0.5, 1, 2, 3, 4, 6, 8, 12, 24 and 36 hours. After 14 days washout period;
• Group-I: LSP 50 mg was administered alone • Group-II: OMP 40 mg, was administered twice a day for 6 days, on the 7th day LSP 50 mg was administered
(§3) The pharmacokinetic parameters were determined using non-compartmental analysis using PK-Summit (version 2.0.2). The plasma concentration of the drug (ng/mL) versus time (hour) profile was constructed for both drugs when administered alone and in combination with each another. The pharmacokinetic parameters like peak plasma concentration (Cmax), time to reach peak plasma concentration (Tmax), area under the concentration-time curve from zero time to time-t (AUC0-t) i.e. AUC0-36 for LSP and AUC0-12 for OMP, area under the concentration-time curve from zero time to infinity (AUC0-∞), elimination half-life (t1/2) and clearance (CL) were determined.
(§4) All the analysis was performed as per ICH guidelines using mean, standard deviation, and relative standard deviation. In the pharmacokinetic studies, the parameter values were compared using a t-test. The P-value (t-test) was calculated using the IBM SPPS statistics version 20. A p < 0.05 (95% confidence interval) was considered to be significant.

[3] = Stability of spiked human plasma samples at LQC and HQC at different temperatures; format: in vitro ADME; conditions: plasma sample
Procedure: For preparation of plasma samples, blood was collected from human volunteer and centrifuged to separate the cellular components. Plasma was de-proteinated with acetonitrile (two times volume of plasma) and was used for spiking the analytes. A liquid-liquid extraction method, reported by Jin et al., [18], with slight modification was used for extraction of LSP and OMP. Known amount of LSP, OMP and IS were added to plasma (1 mL), and vortexed for 30 sec. 4 ml of extraction solvent (mixture of ethyl acetate and dichloromethane in 4:1 by volume) was added, vortexed for 2 min and centrifuged at 3000 × g for 10 min. The supernatant (organic) layer was separated and dried under a gentle stream of nitrogen gas. The dried residue was reconstituted with 0.2 mL of mobile phase and an aliquot (20 μL) was injected into the HPLC system. Blank and zero samples were also treated in the same manner.
The stability of the samples was also evaluated at the level of LQC and HQC of both the analytes. The LQC were 10 and 30 ng/mL while the HQC were 120 and 1200 ng/mL for LSP and OMP, respectively. […] The sample stored at –20 °C involved freeze-thawed cycles at a gap of 12 hours between the two-consecutive freeze-thawed cycles.
The stability of the samples was evaluated for short term and relatively long term (one month). […] The % recovery was calculated by comparing the % recovery (concentration recovered) with freshly prepared spiked samples.

[4] = cited from earlier work
[5] = Pharmacokinetics of omeprazole 40 mg alone and co-administered with levosulpiride 50 mg in healthy human volunteers (Phase-2); format: in vivo
Procedure: as §1, §2
Phase-2 of the study was started after one month of the completion of Phase-1, as follows;
• Group-I: LSP 50 mg was given for 6 days twice a day and on the 7th day single dose of OMP 40 mg was administered • Group-II: OMP 40 mg was administered alone.
The blood was sampled at 0, 0.25, 0.5, 1, 2, 3, 4, 6, 8, and 12 hours.
After 14 days washout period, the pattern of drug administration was reversed as follows;
• Group-I: OMP 40 mg was administered alone. • Group-II: LSP 50 mg was given for 6 days twice a day and on the 7th day single dose of OMP 40 mg was administered
as §3, §4

[6] = levosulpiride with omeprazole versus alone, not significant
[7] = plasma, oral, omeprazole 40 mg alone, healthy human volunteers (n = 20), mean ± SD

Question: For `COc1ccc2nc([S+]([O-])Cc3ncc(CO)c(OC)c3C)[nH]c2c1` (stereo not shown) [5-hydroxy omeprazole], which pharmacological activity [1] is on record?
Answer: pharmacologically inactive

Question: Which results are given for `CCN1CCC[C@H]1CNC(=O)c1cc(S(N)(=O)=O)ccc1OC` [Levosulpiride]?
Answer: AUC(0-inf) [2]: 2210 ± 577 ng·h/mL; AUC(0-t) [2]: 1770 ± 482 ng·h/mL; Cmax [2]: 118 ± 26.3 ng/mL; Tmax [2]: 3.71 ± 0.75 h; half-life [2]: 12.7 ± 4.76 h; AUC(0-inf) ([2]; 50 mg): 1870 ± 627 ng·h/mL; AUC(0-t) ([2]; 50 mg): 1540 ± 473 ng·h/mL; Cmax ([2]; 50 mg): 109 ± 24.9 ng/mL; Tmax ([2]; 50 mg): 3.8 ± 1.05 h; half-life ([2]; 50 mg): 13.3 ± 2.64 h; CL/F ([2]; levosulpiride 50 mg alone): 35832 ± 8402 mL/h; CL/F ([2]; levosulpiride 50 mg with omeprazole 40 mg): 30333 ± 6326 mL/h; increase of AUC0-t [2, 6]: 14.52%; increase of AUC0-∞ [2, 6]: 18.36%; increase of Cmax [2, 6]: 8.79%; reduction of CL [2, 6]: 15.34%; % recovery (mean) ([3]; High QC (120 ng/ml), 15 °C for 12 hours (autosampler temperature)): 99.67%; % recovery (mean) ([3]; High QC (120 ng/ml), -20 °C for 24 hours): 99.17%; % recovery (mean) ([3]; High QC (120 ng/ml), -20°C for one month, three freezed cycles): 98.33%; % recovery (mean) ([3]; High QC (120 ng/ml), RT for 24 hours): 98.00%; % recovery (mean) ([3]; Low QC (10ng/ml), 15 °C for 12 hours (autosampler temperature)): 98.36%; % recovery (mean) ([3]; Low QC (10ng/ml), -20 °C for 24 hours): 98.75%; % recovery (mean) ([3]; Low QC (10ng/ml), -20°C for one month, three freezed cycles): 96.90%; % recovery (mean) ([3]; Low QC (10ng/ml), RT for 24 hours): 96.80%; elimination half-life ([4]; depending upon route of administration, dosage form and dose): 6 to 19 h; elimination half-life ([4]; orally administered LSP 25 mg): 12.0 h; elimination half-life ([4]; orally administered LSP 50 mg): 12.6 h; elimination half-life ([4]; orally administered LSP 100 mg): 14.3 h

Question: Which results are given for `COc1ccc2[nH]c([S+]([O-])Cc3ncc(C)c(OC)c3C)nc2c1` (stereo not shown) [Omeprazole]?
Answer: AUC(0-inf) ([5]; human, plasma, oral): 6490 ± 1610 ng·h/mL; AUC(0-t) ([5]; human, plasma, oral): 5950 ± 1430 ng·h/mL; Tmax ([5]; human, plasma, oral): 1.85 ± 0.83 h; half-life ([5]; human, plasma, oral): 2.23 ± 1.03 h; CL/F ([5]; omeprazole 40 mg alone, healthy human volunteers (n = 20), mean ± SD): 7118.71 ± 2407.41 mL/h; CL/F ([5]; omeprazole 40 mg with levosulpiride 50 mg, healthy human volunteers (n = 20), mean ± SD): 7100.69 ± 2001.55 mL/h; AUC(0-t) ([5]; plasma, oral, omeprazole 40 mg alone, AUC0-12, healthy human volunteers (n = 20), mean ± SD): 6090 ± 1480 ng·h/mL; AUC(0-inf) [5, 7]: 6650 ± 1650 ng·h/mL; Tmax [5, 7]: 1.95 ± 0.99 h; half-life [5, 7]: 2.3 ± 0.94 h; Cmax ([5]; plasma, oral, omeprazole 40 mg single dose administered alone, healthy human volunteers (n = 20), mean ± SD): 1140 ± 262 ng/mL; % recovery (mean) ([3]; High QC (1200 ng/ml), 15 °C for 12 hours (autosampler temperature)): 99.31%; % recovery (mean) ([3]; High QC (1200 ng/ml), -20 °C for 24 hours): 99.48%; % recovery (mean) ([3]; High QC (1200 ng/ml), -20°C for one month, three freezed cycles): 98.80%; % recovery (mean) ([3]; High QC (1200 ng/ml), RT for 24 hours): 98.35%; % recovery (mean) ([3]; Low QC (30 ng/ml), 15 °C for 12 hours (autosampler temperature)): 98.66%; % recovery (mean) ([3]; Low QC (30 ng/ml), -20 °C for 24 hours): 99.33%; % recovery (mean) ([3]; Low QC (30 ng/ml), -20°C for one month, three freezed cycles): 98.73%; % recovery (mean) ([3]; Low QC (30 ng/ml), RT for 24 hours): 96.11%

Question: For `COc1ccc2nc(S(=O)(=O)Cc3ncc(C)c(OC)c3C)[nH]c2c1` [omeprazole sulfone], which pharmacological activity [1] is on record?
Answer: pharmacologically inactive
